Earlier results in patent US9134323B2, “Antibody that specifically binds to an epitope in the tureet region of a human Kir channel” (priority 2009, dated 2015).
Where no end group is shown, it is not given here.

Columns and labels:
[1] = molecular target: T1, Kir2.1 wild-type channels (Homo sapiens, UniProt P63252); conditions: applied to the outside of cells expressing the wild-type channels; 10 mM
T1 sequence (P63252 1-427): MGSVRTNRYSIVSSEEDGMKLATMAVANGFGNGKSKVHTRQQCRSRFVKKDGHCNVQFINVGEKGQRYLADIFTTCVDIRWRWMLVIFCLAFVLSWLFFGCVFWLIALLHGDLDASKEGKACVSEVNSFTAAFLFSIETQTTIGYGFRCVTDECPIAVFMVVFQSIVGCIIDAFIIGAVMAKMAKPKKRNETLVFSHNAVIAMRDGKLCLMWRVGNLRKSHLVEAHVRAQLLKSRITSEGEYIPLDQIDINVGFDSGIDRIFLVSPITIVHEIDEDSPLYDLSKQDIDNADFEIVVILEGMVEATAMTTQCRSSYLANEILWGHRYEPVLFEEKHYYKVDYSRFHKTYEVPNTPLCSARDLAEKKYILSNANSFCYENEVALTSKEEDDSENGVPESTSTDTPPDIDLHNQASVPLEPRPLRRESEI

[2] = molecular target: T2, Kir1.1 channels (Homo sapiens, UniProt P48048)
T2 sequence (P48048 1-391): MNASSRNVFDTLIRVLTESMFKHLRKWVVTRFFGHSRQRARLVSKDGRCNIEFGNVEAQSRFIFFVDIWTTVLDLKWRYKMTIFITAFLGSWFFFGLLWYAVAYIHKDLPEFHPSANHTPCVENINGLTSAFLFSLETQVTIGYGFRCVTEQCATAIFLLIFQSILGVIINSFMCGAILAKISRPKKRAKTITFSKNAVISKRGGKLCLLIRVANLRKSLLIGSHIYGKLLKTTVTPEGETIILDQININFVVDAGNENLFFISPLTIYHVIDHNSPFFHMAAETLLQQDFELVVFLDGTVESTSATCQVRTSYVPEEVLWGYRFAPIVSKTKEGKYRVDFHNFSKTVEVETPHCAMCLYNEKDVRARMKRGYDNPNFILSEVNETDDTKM

[3] = molecular target: T3, Kir3.4 channels (Homo sapiens, UniProt P48544+P48549)
T3 sequence (P48544 1-419): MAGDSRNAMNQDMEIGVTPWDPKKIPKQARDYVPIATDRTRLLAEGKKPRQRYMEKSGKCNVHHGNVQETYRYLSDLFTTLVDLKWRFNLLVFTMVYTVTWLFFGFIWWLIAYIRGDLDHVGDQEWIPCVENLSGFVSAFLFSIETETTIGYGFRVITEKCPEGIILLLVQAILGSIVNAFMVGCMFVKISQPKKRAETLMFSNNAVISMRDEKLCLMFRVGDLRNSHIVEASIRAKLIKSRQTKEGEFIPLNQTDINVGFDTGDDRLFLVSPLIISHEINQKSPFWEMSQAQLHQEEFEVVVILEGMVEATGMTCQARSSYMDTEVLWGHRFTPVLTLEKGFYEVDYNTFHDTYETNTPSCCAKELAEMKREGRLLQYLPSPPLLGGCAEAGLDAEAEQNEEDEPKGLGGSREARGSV
T3 sequence (P48549 1-501): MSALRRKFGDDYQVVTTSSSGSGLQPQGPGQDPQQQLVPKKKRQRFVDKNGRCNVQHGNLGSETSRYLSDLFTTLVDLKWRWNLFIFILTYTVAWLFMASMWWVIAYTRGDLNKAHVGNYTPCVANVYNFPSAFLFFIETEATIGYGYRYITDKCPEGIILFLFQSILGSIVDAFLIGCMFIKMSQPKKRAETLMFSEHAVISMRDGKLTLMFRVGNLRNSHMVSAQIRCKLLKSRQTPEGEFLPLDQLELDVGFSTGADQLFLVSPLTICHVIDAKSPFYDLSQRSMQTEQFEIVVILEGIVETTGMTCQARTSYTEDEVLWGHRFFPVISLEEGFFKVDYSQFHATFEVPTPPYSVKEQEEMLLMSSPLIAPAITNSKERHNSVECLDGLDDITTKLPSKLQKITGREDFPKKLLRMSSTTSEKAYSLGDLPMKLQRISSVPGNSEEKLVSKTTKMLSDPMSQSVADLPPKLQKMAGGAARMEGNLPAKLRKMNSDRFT

[4] = tested on: Kir2.1 channel, variable sequence mutated to be Kir3.4-like; conditions: turret variable sequence mutated to be Kir3.4-like

Compound	effect on currents [1]	inhibition of Kir1.1 channels [2]	inhibition of Kir3.4 channels [3]	sensitivity of mutated Kir2.1 channel to the toxin [4]	single channel conductance in the blocked state ([2]; blocked state, reduced rather than inhibited all the way)
O[C@H](CS)[C@H](O)CS (racemic) [DTT, Dithiothreitol]	did not affect currents				
N[C@@H](CCC(=O)N[C@@H](CS)C(=O)NCC(=O)O)C(=O)O [reduced glutathione]	did not affect currents				
tertiapin (ALCNCNRIIIPHMCWKKCGKK; ends and bridges not checked; cysteine pairing not given here; UniProt P56587 1-21, looked up)		inhibits	inhibits	becomes sensitive	
δ-dendrotoxin		inhibits			about 10%
